# Laboratory results reported in ChEMBL document CHEMBL4619731, “Identification of a new class of non-electrophilic TRPA1 agonists by a structure-based virtual screening approach” (Bioorg Med Chem Lett, 2020).
# Molecular target: Transient receptor potential cation channel subfamily A member 1 (Homo sapiens) (UniProt O75762)
# Experiment: Agonist activity at TRPA1 (unknown origin) at 1000 uM relative to AITC
# Sequence of Transient receptor potential cation channel subfamily A member 1 (Homo sapiens) (O75762 whole entry): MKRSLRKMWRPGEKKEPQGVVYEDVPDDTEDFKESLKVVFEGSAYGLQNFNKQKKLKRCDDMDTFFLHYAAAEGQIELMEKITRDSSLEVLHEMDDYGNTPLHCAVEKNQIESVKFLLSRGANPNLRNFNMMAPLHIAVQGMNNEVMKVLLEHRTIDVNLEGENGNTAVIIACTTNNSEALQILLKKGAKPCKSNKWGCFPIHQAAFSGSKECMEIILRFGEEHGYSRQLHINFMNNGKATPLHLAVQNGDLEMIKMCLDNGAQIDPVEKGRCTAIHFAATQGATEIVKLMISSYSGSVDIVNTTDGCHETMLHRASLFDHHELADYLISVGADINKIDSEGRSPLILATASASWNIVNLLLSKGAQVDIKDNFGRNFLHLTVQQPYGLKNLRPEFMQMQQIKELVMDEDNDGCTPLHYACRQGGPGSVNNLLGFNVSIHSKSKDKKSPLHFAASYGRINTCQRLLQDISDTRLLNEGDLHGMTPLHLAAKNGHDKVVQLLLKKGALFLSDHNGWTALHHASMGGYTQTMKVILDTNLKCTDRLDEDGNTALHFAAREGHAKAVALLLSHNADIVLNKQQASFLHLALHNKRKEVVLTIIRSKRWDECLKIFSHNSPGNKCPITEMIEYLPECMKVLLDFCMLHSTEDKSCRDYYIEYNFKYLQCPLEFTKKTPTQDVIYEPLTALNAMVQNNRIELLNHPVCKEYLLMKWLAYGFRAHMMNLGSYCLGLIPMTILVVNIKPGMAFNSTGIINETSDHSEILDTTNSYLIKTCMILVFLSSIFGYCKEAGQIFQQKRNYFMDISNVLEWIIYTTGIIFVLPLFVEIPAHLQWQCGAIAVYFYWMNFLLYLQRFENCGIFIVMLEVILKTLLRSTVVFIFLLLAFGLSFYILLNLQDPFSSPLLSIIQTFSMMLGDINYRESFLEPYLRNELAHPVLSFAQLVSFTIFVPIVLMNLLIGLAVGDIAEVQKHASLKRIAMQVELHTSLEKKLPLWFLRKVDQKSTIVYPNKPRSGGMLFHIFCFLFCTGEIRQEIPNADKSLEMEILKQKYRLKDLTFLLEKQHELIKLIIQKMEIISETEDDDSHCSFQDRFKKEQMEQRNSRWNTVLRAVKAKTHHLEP
row,Compound,Activity
1,CCCCCCCC(=O)OC,33%
2,CCCCCCCC1CCCC(=O)O1 (centres undefined),20%
3,O=c1ccn([C@@H]2O[C@H](CO)[C@@H](O)[C@H]2O)c(=O)[nH]1,11%
4,CCCCCCCCCC(=O)OC,14%
5,C/C=C/C(=O)C1=C(C)C=CCC1(C)C,13%
6,CCCCC(CC)COC(=O)c1ccccc1O (centres undefined),14%
7,CCOC(=O)CC(O)(CC(=O)OCC)C(=O)OCC,18%
8,CCCCCCCCCC(=O)OCC,16%
9,O=c1c(O[C@@H]2O[C@@H](CO)[C@H](O)[C@H]2O)c(-c2ccc(O)c(O)c2)oc2cc(O)cc(O)c12,41%
10,CCCCCC(=O)OCCC(C)C,16%
11,CCCCCCCCCCO,71%
12,O=C(O[C@H]1Cc2c(O)cc(O)cc2O[C@@H]1c1ccc(O)c(O)c1)c1cc(O)c(O)c(O)c1,15%
13,CCCCCCCCCC(C)=O,15%
14,CCCCC(CC)CO (centres undefined),60%
15,CCCCCCCC(=O)OCC,9%
16,CCCCCC(=O)OCC(C)C,23%
17,CCCCCCCCCC(C)O (centres undefined),16%
18,CCCCCCCCCCCCCC(=O)OCC,17%
19,CCCCCCCCCCCO,20%
20,CC(=O)OC(C)C,10%
21,CCCCCCCCCCCC(=O)OCC,15%
22,O=c1cc(-c2ccc(O)cc2)oc2c([C@@H]3O[C@H](CO)[C@@H](O)[C@H](O)[C@H]3O)c(O)cc(O)c12,15%
23,CCCCCCCCCCCCO,12%
24,CC(O)CO (centres undefined),12%
25,CCCCCCCC(=O)OCCC(C)C,12%

row,Compound,Activity
1,COc1cc(C2OCC3C(c4cc(OC)c(O)c(OC)c4)OCC23)cc(OC)c1O (centres undefined),26%
2,CCOC(=O)c1ccco1,12%
3,CC(=O)OCC(COC(C)=O)OC(C)=O,17%
4,C[C@@H]1O[C@@H](O[C@H]2[C@H](Oc3cc(O)c4c(c3)O[C@H](c3ccc(O)cc3)CC4=O)O[C@H](CO)[C@@H](O)[C@@H]2O)[C@H](O)[C@H](O)[C@H]1O,20%
5,CCCCCCCCC(=O)OCC,12%
6,Oc1cc(O)c2c(c1)O[C@H](c1ccc(O)c(O)c1)[C@H](O)[C@H]2c1c(O)cc(O)c2c1O[C@H](c1ccc(O)c(O)c1)[C@H](O)C2,22%
7,CCCCCCCC1CCC(=O)O1 (centres undefined),27%
8,CCCC(=O)OCC(C)C,19%
9,CCCCCCCCOC(C)=O,8%
10,CCCC(=O)OCCc1ccccc1,62%
11,CCCCCCCC(=O)CC,15%
12,CCCCCCCOC(C)=O,8%
13,CCCCCCCCCCCC(C)=O,13%
14,CCCCCCCCCC(=O)OCCC(C)C,13%
15,CC(C)C(=O)OCCc1ccccc1,37%
16,CCCCCCCCOC(=O)CCC,13%
17,CCCCCCCCC(C)=O,11%
18,CCCCCCCCCCCCCC(=O)O,23%
19,CCCCCCCCC(=O)OC,39%
20,O=c1cc(-c2ccc(O)cc2)oc2cc(O[C@@H]3O[C@H](CO)[C@@H](O)[C@H](O)[C@H]3O)c([C@@H]3O[C@H](CO)[C@@H](O)[C@H](O)[C@H]3O)c(O)c12,20%
21,CCCCCCCCCCCCCCCC(=O)OC,17%
22,CCCCCCCCCCC(C)=O,13%
23,CCCCCCCCCCCCCC(C)=O,10%
24,OC[C@H]1O[C@H](O[C@H]2[C@H](O)[C@@H](O)[C@@H](O[C@H]3[C@H](O)[C@@H](O)C(O)O[C@@H]3CO)O[C@@H]2CO)[C@H](O)[C@@H](O)[C@@H]1O (some centres undefined),14%
